In patent publication US5723631A, “Coumarin derivatives as retroviral inhibitors” (SmithKline Beecham Corporation, priority 1995, dated 1998):
Like-named read-outs stand apart in the source and are kept apart here.

What was measured:
[1] = molecular target: T1, HIV reverse transcriptase (Human immunodeficiency virus type 1 group M subtype B, UniProt P03366); assay: HIV reverse transcriptase inhibition (TCA precipitation assay / scintillation proximity assay); type: biochemical
T1 construct: Recombinant HIV reverse transcriptase; made in house
Method: 5. Reverse Transcriptase Activity
RT inhibition was determined by a TCA precipitation assay as follows:
TCA-precipitation assay for HIV reverse transcriptase.
A heteropolymeric primer template was prepared by hybridizing a 691 nucleotide RNA molecule derived from the gag region of HIV [(+)-GAG^691, prepared as described in Mizrahi, V., Biochemistry, 28:9088-9094 (1989)], to a synthetic oligodeoxynucleotide (sequence: 5'-[…]-3'). The primer template (10 nM) was incubated in reaction buffer (50 mM Tris-HCl, pH 7.8, 80 mM KCl, 6 mM MgCl2, 10 mM DTT, 0.01 mg/ml BSA) with inhibitor, 10 μM dGTP, 10 μM dATP, and 28 μCi/ml of [3H]TYP (Amersham). Recombinant HIV reverse transcriptase (prepared as described in Mizrahi, et al., Arch. Biochem. Biophys., 273: 347-358, (1989)) was added to a concentration of 2-8 nM, and the reaction was incubated for 15 min at 37° C. (total reaction volume, 50 μL). The reaction was terminated with 50 μL of 20% TCA in 100 mM sodium pyrophosphate (ice cold) and chilled on ice for 15-30 min. The reaction mixture was filtered through glass fiber filters using a cell harvester, and the radioactivity that adhered to the filter was quantified using an LKB betaplate counter.
Scintillation proximity assay for HIV reverse tanscriptase.
HIV reverse transcriptase SPA enzyme assay system kits were obtained from Amersham (item number NK8972) and used as described in the package insert. Briefly, 10 μL of primer-template as supplied in the kit was added to 70 μL of dNTP/[3H]TTP solution. Ten μL of the inhibitor to be tested was added, followed by recombinant HIV RT (prepared as above) to a concentration of 2 nM. The reaction mixture was incubated for 10 min at room temperature and then terminated with 40 μL of 0.5M EDTA. Ten μL of streptavidin-SPA beads were added to each tube and the incorporated radioactivity was measured in an LKB betaplate counter.

[2] = Cellular cytotoxicity in Molt4 cells; type: cell-based; conditions: human, Measured via XTT
Method: Cytotoxicity was tested with the CD4+cell line, Molt4. The compounds of the present invention were dissolved in DMSO in order to maximize solubility and provide a common solvent system. […] Cytotoxicity was measured as the inhibition of ^3 H-thymidine incorporation into the host cell's genome after exposure to the compounds of the present invention.

HIV-1 (IIIB Stock) = assay: HIV-1 infectivity inhibition assay (Molt4 cells); type: cell-based; conditions: for IC50: read-out: IC50 (50% Inhibitory concentration for cytopathicity by HIV); for Selective Index (Cytotoxycity/IC50 ratio): cytotoxicity/IC50 ratio, 10080 min
Method: 6. HIV-1 Infectivity Inhibition Assay
In addition, the compounds of the present invention were assayed via a virus neutralization, or HIV infectivity assay as follows:
Bulk Infection of Molt4 Cells.
Bulk infection is used to overcome variations inherent in individual well infections. Sufficient cells and diluted virus stock for an experiment are mixed together in a T-75 flask (Corning) so that the following ratio per well of virus and cells is maintained: 100 μl containing 45 TCID50 of virus (IIIB Stock) mixed with 100 μl of Molt4 cells (3×10^4 cells/well or 3×10^5 /ml). Virus is allowed to adsorb for 90 min. at 37° C. in CO2 incubator. […] of cell/virus mixture is then aliquoted into individual wells of a 24-well plate.
Appropriate 1/200 volumes of inhibitor dilutions at 200X final concentrations in 100% DMSO are added [i.e., to the 497.5 μl of virus infected cells, 2.5 μl of inhibitor dilution of 100% DMSO or 100% DMSO alone (for virus controls) is carefully added to appropriate wells]. Dilution series are generally 5-fold dilutions starting from 50 μg/ml.
Cultures are fed with RPMI 1640+20% FBS containing 1× concentration of inhibitor series (i.e., starting concentrations present at beginning of experiment) at the following times and volumes:
(Final volume in each well=1.5 ml)
Culture supernatants are harvested at 7 days post infection. Generally 90 μl of culture medium is transferred into a 96-well culture plate containing 10 μl 5% Triton X-100 in PBS. The plate is sealed, wiped with gauze saturated with 70% ethanol+detergent and stored at -80° C. until Micro RTs or p24 ELISAs are done. The results of HIV infectivity,inhibition is presented below:
^2 50% Inhibitory concentration for cytopathicity by HIV

[3] = molecular target: T2, HIV RT in which amino acid #181 was changed from tyrosine to cysteine (Human immunodeficiency virus type 1 BH10, UniProt P03366, Y780C); assay: Inhibition of TIBO-resistant mutant HIV RT, amino acid #181 tyrosine to cysteine; type: biochemical; conditions: Tyr181 to cysteine mutant
T2 construct: wild type recombinant per Mizrahi 1989

[4] = molecular target: T3, HIV RT in which amino acid #181 was changed from tyrosine to isoleucine (Human immunodeficiency virus type 1 BH10, UniProt P03366, Y780I); assay: Inhibition of TIBO-resistant mutant HIV RT, amino acid #181 tyrosine to isoleucine; type: biochemical; conditions: Tyr181 to isoleucine mutant
T3 construct: wild type recombinant per Mizrahi 1989

[5] = system: human immunodeficiency virus-1 reverse transcriptase (HIV-1 RT); conditions: literature, Kashman et al. 1992; cited from earlier work
[6] = recombinant HIV RT, RT inhibition results table of Example 5, read-out: IC50
[7] = Human immunodeficiency virus 1, IIIB, MOLT-4, 168 h
[8] = Compounds 22 and 23, Example 7, read-out: Reverse Transcriptase Activity: IC50

Compound | IC50 [1, 6] [µM] | CC50 [2] [µM] | further results
C[C@@H]1[C@H](O)c2c(c3c(c4c(-c5ccccc5)cc(=O)oc24)O[C@@H]2[C@H]3C2(C)C)O[C@@H]1C [Inophyllum G1] | > 50 |  | 
CCCc1cc(=O)oc2c3c(c4c(c12)OC(C)(C)C=C4)O[C@H](C)[C@@H](C)[C@@H]3O (relative stereo) [(±)-20, (±)-Calanolide A] |  |  | HIV-1 RT-inhibitory potency compared with natural calanolide A (in words) ([1]; synthetic racemate vs data reported for natural calanolide A): in full agreement with the data reported for natural calanolide A
C/C=C(\C)C(=O)c1c(OC)c2c(c3c(-c4ccccc4)cc(=O)oc13)OC(C)(C)C=C2 [Calophyllolide] | > 50 | 4.5 | 
tetrahydro-imidazo[4,5,1-jk][1,4]-benzodiazepin-2-(1H)-one and -thione [TIBO, reference compound] |  |  | IC50 (HIV-1 (IIIB Stock); Molt4 cells, harvest 7 days post infection): 0.19 µM; Selective Index (Cytotoxycity/IC50 ratio) (HIV-1 (IIIB Stock)): 100
C[C@@H]1C(=O)c2c(c3c(c4c(-c5ccccc5)cc(=O)oc24)OC(C)(C)C=C3)O[C@@H]1C [Inophyllum E] | > 50 | 6.2 | 
C[C@H]1[C@@H](C)Oc2c3c(c4c(-c5ccccc5)cc(=O)oc4c2[C@@H]1O)OC(C)(C)C=C3 [Inophyllum D] | 30 | 15 | 
C[C@@H]1[C@H](O)c2c(c3c(c4c(-c5ccccc5)cc(=O)oc24)OC(C)(C)C=C3)O[C@@H]1C [Inophyllum A] | 9 | 33 | 
C[C@@H]1[C@@H](C)Oc2c3c(c4c(-c5ccccc5)cc(=O)oc4c2[C@@H]1O)OC(C)(C)C=C3 [Inophyllum P] | 0.6 | 25 | inhibition of mutant HIV RT relative to wild-type (in words) [3]: potency comparable to that observed with wild-type HIV RT; IC50 (HIV-1 (IIIB Stock); [7]): 1.6 µM; Selective Index (Cytotoxycity/IC50 ratio) (HIV-1 (IIIB Stock)): 16; inhibition of mutant HIV RT relative to wild-type (in words) [4]: potency comparable to that observed with wild-type HIV RT; activity in the RT-ase assay (in words) [1]: sub-micromolar activity
CCCc1cc(=O)oc2c3c(c4c(c12)OC(C)(C)C=C4)O[C@@H](C)C[C@@H]3O (relative stereo) [Compound 22] |  |  | IC50 [1, 8]: 1.78 µM
CCCc1cc(=O)oc2c3c(c4c(c12)OC(C)(C)C=C4)O[C@@H](C)C[C@H]3O (relative stereo) [Compound 23] |  |  | IC50 [1, 8]: 0.6 µM
C[C@H]1Oc2c3c(c4c(-c5ccccc5)cc(=O)oc4c2C(=O)[C@@H]1C)OC(C)(C)C=C3 [Inophyllum C] | > 50 | 18 | 
C[C@H]1[C@H](O)c2c(c3c(c4c(-c5ccccc5)cc(=O)oc24)OC(C)(C)C=C3)O[C@@H]1C [Inophyllum B] | 0.3 | 55 | inhibition of mutant HIV RT relative to wild-type (in words) [3]: potency comparable to that observed with wild-type HIV RT; IC50 (HIV-1 (IIIB Stock); [7]): 1.4 µM; Selective Index (Cytotoxycity/IC50 ratio) (HIV-1 (IIIB Stock)): 39; inhibition of mutant HIV RT relative to wild-type (in words) [4]: potency comparable to that observed with wild-type HIV RT; activity in the RT-ase assay (in words) [1]: sub-micromolar activity
C[C@@H]1[C@H](O)c2c(c3c(c4c(-c5ccccc5)cc(=O)oc24)O[C@H]2[C@@H]3C2(C)C)O[C@@H]1C [Inophyllum G2] | > 50 |  | 
CCCc1cc(=O)oc2c3c(c4c(c12)OC(C)(C)C=C4)O[C@H](C)[C@@H](C)[C@@H]3O [Calanolide A] |  |  | inhibition of HIV-1 RT (in words) [5]: potent inhibitor
